ChEMBL document CHEMBL1126332 (Bioorg Med Chem Lett, 1992)
The source made the active and inactive calls. No cut-off for these calls is given here.

Assays:
[1] = molecular target: T1, Polyunsaturated fatty acid 5-lipoxygenase (Homo sapiens, UniProt P09917); test: Inhibition of [14C]arachidonic acid conversion to 5-HETE by broken cell 5-LO isolated from guinea pig PMN; not active at the highest concentration (3 ug/mL) tested; No activity; format: functional, Cavia porcellus; details: target entry is the homologue from another species
T1 sequence (P09917 whole entry): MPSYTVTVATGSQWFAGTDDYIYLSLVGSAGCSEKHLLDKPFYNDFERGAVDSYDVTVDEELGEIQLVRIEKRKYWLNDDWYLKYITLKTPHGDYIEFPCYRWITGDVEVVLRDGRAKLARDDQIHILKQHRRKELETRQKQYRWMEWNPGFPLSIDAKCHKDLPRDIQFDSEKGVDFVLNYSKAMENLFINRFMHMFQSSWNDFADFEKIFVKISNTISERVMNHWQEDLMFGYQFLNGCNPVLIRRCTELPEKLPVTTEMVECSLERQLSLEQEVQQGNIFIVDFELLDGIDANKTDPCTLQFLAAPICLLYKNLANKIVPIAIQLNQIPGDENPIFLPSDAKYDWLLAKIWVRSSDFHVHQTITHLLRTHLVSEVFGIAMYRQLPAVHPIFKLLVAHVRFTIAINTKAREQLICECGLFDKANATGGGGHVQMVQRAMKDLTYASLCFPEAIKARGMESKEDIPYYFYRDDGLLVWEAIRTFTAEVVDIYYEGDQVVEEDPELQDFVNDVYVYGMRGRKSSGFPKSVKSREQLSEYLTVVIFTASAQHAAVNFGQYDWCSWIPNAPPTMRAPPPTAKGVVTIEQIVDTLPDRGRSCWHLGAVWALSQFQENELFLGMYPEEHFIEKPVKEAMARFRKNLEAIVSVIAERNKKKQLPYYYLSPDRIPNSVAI

Oryctolagus cuniculus = organism: Oryctolagus cuniculus; test: The ability to inhibit iron-dependent lipid peroxidation of rabbit brain homogenate; not active at the highest concentration (30 ug/mL) tested; No activity; format: functional

- IC50 [1]: Not Active
- MIC (Oryctolagus cuniculus): inactive
SMILES: CC1=NN(CCOc2ccc3ccccc3c2)C(=O)C1(C)C
